Key:
P301L tau = target: T1, P301L tau (Homo sapiens, UniProt P10636, P618L); assay: Tau degradation in doxycycline-induced ChoK1-Tau P301L clone D1 cells; assay type: cell-based
T1 construct: expressed in transfected cells
Method: FIGS. 2A, 2B, and 2C. Tau targeting bifunctional molecules are potent P301L tau degraders in vitro, which depends upon both binding to the tau binding moiety and the E3 ligase binding moiety (ULM). (2A) Tau expression was induced by addition (+) of doxycycline (1 μg/ml) to ChoK1-Tau P301L clone D1 for 24 hours followed by a 24 hour doxycycline washout period where only bifunctional molecule was present.

Tau P301L = target: T2, Tau P301L (Homo sapiens, UniProt P10636, P618L); assay: In vitro tau degradation assay in CHOK1 Tau P301L cells (sarkosyl insoluble tau, WES); assay type: cell-based
T2 construct: expressed in transfected cells
How it was run: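 T-Rex CHOK1 clone D1 with doxycycline-inducible (1 μg/ml) Tau P301L treated 48 h with compound at 1 μM, doxycycline removed for the final 24 h. Sarkosyl-insoluble tau quantified by WES capillary electrophoresis with Tau1 antibody, expressed relative to DMSO doxycycline control and binned as ≤50% or >50% remaining.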

[1] = target: T3, seeded conformational tau (MC1) (Homo sapiens, UniProt P10636, P618L); assay: Tg2508 ex-vivo tau seeding assay in ChoK1-Tau P301L cells (MC1 high content imaging); assay type: cell-based, mice; conditions: 24 hours, MC1 spot intensity in ChoK1-Tau P301L cells
T3 construct: tissue Taconic; host or cells: cortex / hippocampus of Tg2508 transgenic mice, sarkosyl-insoluble fraction or brain extract
Method: FIGS. 4A, 4B, and 4C. Briefly, ChoK1-Tau P301L cells were treated with K18 tau preformed fibrils (PFFs) or extracts from Tg2508 brain samples (as described in Materials and Methods; PFF generation modified from Holmes et al. PNAS. 2014. Proteopathic tau seeding predicts tauopathy in vivo. Oct. 111 (41) E4376-85). Seeded conformational tau species are detected by MC1 antibody positivity and quantified as MC1 spot average intensity per cell on the Image Express™ high content platform.
In vitro tau Seeding Assay for FIGS. 4A, 4B, and 4C. Tau P301L T-Rex CHO Cells were plated on BioCoat Collagen 96 well microplates that were also poly-D-lysine coated. Media was removed, cells were washed with DPBS, trypsinized and plated at 50,000 cells per mL with Doxycycline […] and no doxycycline control for 24 hours. […]

[2] = test system: seeding competent tau species (MC1-positive seeded conformational tau) in ChoK1-Tau P301L cells; assay: Tg2508 ex-vivo seeding of P301L CHO cells, MC1 high content image analysis; assay type: cell-based, Tg2508 mice; conditions: 24 hours
Method: FIGS. 4A, 4B, and 4C. […] Briefly, ChoK1-Tau P301L cells were treated with K18 tau preformed fibrils (PFFs) or extracts from Tg2508 brain samples. Seeded conformational tau species were detected by MC1 antibody positivity and quantified as MC1 spot average intensity per cell on the Image Express high content platform.

pathologic tau [3] = target: T4, pathologic tau (Homo sapiens, UniProt P10636, P618L); assay: In vivo tau degradation assay in Tg2508 tauopathy mice (sarkosyl insoluble tau, Wes); conditions: Tg2508 mice, 15, 3, 1 or 0.3 mpk parenterally, 24 hours post dose
T4 construct: tissue Taconic; host or cells: cortex / hippocampus of Tg2508 transgenic mice, sarkosyl-insoluble fraction or brain extract
Method: (§1) FIGS. 3A and 3B. Tg2508 tauopathy mice were dosed (12 animals per group) with either 15 mpk exemplary compound 82 or 30 mpk exemplary compound 382 or vehicle parenterally, as described below (Lewis et al., 2000). Twenty-four hours post dose, the animals were sacrificed and cortical brain samples were analyzed for pathologic tau by Wes capillary gel electrophoresis. FIG. 3A is a graphical representation of the averaged analysis of pathologic tau shown for each animal tested comparing lanes from the vehicle control to either exemplary compound 82 or exemplary compound 382 as indicated in FIG. 3B. Greater than 95% reduction of pathologic tau was observed following treatment of the Tg2508 animals with either exemplary compound 82 or exemplary compound 382.
FIG. 5. Tg2508 animals were dosed with either 15, 3, 1 or 0.3 mpk of bifunctional compound exemplary compound 382 parenterally, as described in materials and methods. Hippocampal extracts were analyzed for either pathologic tau levels by Wes or bifunctional compound levels at each given dose as shown.
In vivo tau Degradation Assay for FIGS. 3A, 3B and 5. […] Hetero-bifunctional degrader molecule concentrations were determined using standand liquid chromatography and mass spectroscopy methodologies (Drumetix).

pathologic tau [4] = target: T4, pathologic tau; assay: Pathologic tau in Tg2508 brain after intravenous dosing, measured by Wes capillary gel electrophoresis; assay type: in vivo, Tg2508 tauopathy mice; conditions: 15, 3, 1 or 0.3 mpk intravenous, 24 hours post dose, Tg2508 hippocampi
Method: as §1, with “and 3B. Exemplary bifunctional compounds degrade greater than 95% of pathologic tau in Tg2508 brain following parenteral administration in vivo. Tg2508 tauopathy” for “and 3B. Tg2508 tauopathy”, “or vehicle intravenously. Twenty-four hours” for “or vehicle parenterally, as described below (Lewis et al., 2000). Twenty-four hours”, “animals were sacrificed, and cortical” for “animals were sacrificed and cortical”
FIG. 5. […] Tg2508 animals were dosed with either 15, 3, 1 or 0.3 mpk of bifunctional compound 382 intravenously, as described in materials and methods. Hippocampal extracts were analyzed for either pathologic tau levels by Wes or bifunctional compound levels at each given dose as shown.

[5] = 10-fold molar excess pomalidomide
[6] = similar competition (10-fold molar excess) with flortaucipir
[7] = single parenteral treatment 15 mpk
[8] = single parenteral treatment 30 mpk

T1 sequence (P10636 1-441 isoform P10636-8 P301L): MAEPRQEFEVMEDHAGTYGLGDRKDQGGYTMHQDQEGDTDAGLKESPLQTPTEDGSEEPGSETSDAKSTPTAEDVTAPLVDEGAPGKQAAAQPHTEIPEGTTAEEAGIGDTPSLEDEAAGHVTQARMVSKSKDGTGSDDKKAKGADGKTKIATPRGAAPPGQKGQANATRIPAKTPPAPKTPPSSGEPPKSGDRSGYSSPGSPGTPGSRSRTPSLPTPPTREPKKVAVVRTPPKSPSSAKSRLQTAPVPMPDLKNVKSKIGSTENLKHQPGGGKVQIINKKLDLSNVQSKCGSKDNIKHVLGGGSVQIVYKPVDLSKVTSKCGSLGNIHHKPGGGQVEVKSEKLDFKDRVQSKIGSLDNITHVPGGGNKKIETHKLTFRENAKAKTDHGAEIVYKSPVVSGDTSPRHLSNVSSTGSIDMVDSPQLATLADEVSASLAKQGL
T2 sequence (P10636 1-441 isoform P10636-8 P301L): as above
T4 sequence (P10636 1-383 isoform P10636-6 P243L): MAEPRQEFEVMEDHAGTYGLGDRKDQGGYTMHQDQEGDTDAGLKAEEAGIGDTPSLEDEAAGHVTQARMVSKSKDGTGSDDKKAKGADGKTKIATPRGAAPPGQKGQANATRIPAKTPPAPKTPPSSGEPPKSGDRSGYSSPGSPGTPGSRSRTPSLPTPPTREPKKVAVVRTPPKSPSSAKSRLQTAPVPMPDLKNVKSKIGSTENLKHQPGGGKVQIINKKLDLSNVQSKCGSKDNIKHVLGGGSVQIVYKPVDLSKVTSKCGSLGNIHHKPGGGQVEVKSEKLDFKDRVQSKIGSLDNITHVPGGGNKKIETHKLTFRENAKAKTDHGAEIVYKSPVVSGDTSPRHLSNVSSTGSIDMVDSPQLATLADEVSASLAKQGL
T3 sequence (P10636 1-383 isoform P10636-6 P243L): as above

| tau degradation under competition with E3 ligase ligand pomalidomide (P301L tau; [5]) | DC50 (P301L tau; ChoK1-Tau P301L clone D1, 24 h doxycycline (1 μg/ml) induction, then 24 h washout with only compound present, vs 0.1% DMSO) | tau degradation under competition with tau warhead ligand flortaucipir (P301L tau; [6]) | tau degradation under competition with E3 ligase ligand (Tau P301L; [5]) | DC50 (Tau P301L; ChoK1-Tau P301L clone D1, doxycycline 1 μg/ml, 250, 125, 50 nM) | tau degradation under competition with tau warhead ligand (Tau P301L; [6]) | seeding competent tau species in Tg2508 cortical brain extracts [1, 7] | concentration of tau protein in hippocampi (pathologic tau [3]) | remaining activity at 1 µM (Tau P301L; CHO-K1, remaining tau protein in sarkosyl insoluble pellet, CHOK1 Tau P301L cells treated 48 hours with test compound at 1 μM, doxycycline removed for the last 24 hours, relative to DMSO doxycycline control, read-out: Tau Protein Degradation effect at 1 μM) | seeding competent tau species in Tg2508 cortical brain extracts [1, 8] | SMILES | degradation of tau (P301L tau; 250 nM, 125 nM or 50 nM, ChoK1-Tau P301L clone D1, vs 0.1% DMSO) | degradation of tau compared to 0.1% DMSO control (Tau P301L; ChoK1-Tau P301L clone D1, 250 nM, 125 nM or 50 nM) | seeding competent tau species in Tg2508 cortical brain extracts (MC1 spot average intensity per cell) [2, 7] | pathologic tau levels in hippocampal extracts (pathologic tau [4]) | seeding competent tau species in Tg2508 cortical brain extracts (MC1 spot average intensity per cell) [2, 8] |
| --- | --- | --- | --- | --- | --- | --- | --- | --- | --- | --- | --- | --- | --- | --- | --- |
| completely inhibited | < 0.05 µM | Partial inhibition | completely inhibited | < 0.05 µM | Partial inhibition | effectively degraded | – | – | – | Cn1c2ccncc2c2ccc(-c3ccc(O[C@H]4C[C@H](OC5CCN(CCCCCOc6ccc7c(c6)C(=O)N(C6CCC(=O)NC6=O)C7=O)CC5)C4)nc3)cc21 (stereo partly drawn) [Compound 82] | concentration-dependent degradation of tau | concentration-dependent degradation of tau | effectively degraded | – | – |
| – | – | – | – | – | – | – | dose-dependently reduced | < 50% | effectively degraded | Cn1c2ccncc2c2ccc(-c3ccc(N4CC(OC5CCN(CCCCCOc6ccc7c(c6)C(=O)N(C6CCC(=O)NC6=O)C7=O)CC5)C4)nc3)cc21 (stereo not drawn) [Compound 382, 2-(2,6-dioxopiperidin-3-yl)-5-((5-(4-((1-(5-(5-methyl-5H-pyrido[4,3-b]indol-7-yl)pyridin-2-yl)azetidin-3-yl)oxy)piperidin-1-yl)pentyl)oxy) isoindoline-1,3-dione] | – | – | – | A clear dose-response relationship is demonstrated | effectively degraded |
